Data: patent US12527325B2, “Pesticidally active diazine-amide compounds” (SYNGENTA CROP PROTECTION AG, priority 2019, dated 2026)

Tests used:
Type in all cases: in vivo
[1] = system: Plutella xylostella; assay: Example B5: Plutella xylostella (Diamond Back Moth); conditions: 192 h, application rate of 200 ppm, 24-well artificial diet, eggs, 8 days after infestation, read-out: control in at least one of the two categories (mortality or growth inhibition)
Description: Example B5: Plutella xylostella (Diamond Back Moth)
24-well microtiter plates with artificial diet were treated with aqueous test solutions prepared from 10′000 ppm DMSO stock solutions by pipetting. After drying, Plutella eggs were pipetted through a plastic stencil onto a gel blotting paper and the plate was closed with it. The samples were assessed for mortality and growth inhibition in comparison to untreated samples 8 days after infestation.

[2] = system: Diabrotica balteata; assay: Example B1: Diabrotica balteata (Corn Root Worm); conditions: 96 h, application rate of 200 ppm, sprayed maize sprouts, L2 larvae, 4 days after infestation, read-out: control in at least one of the two categories (mortality or growth inhibition)
Description: Example B1: Diabrotica balteata (Corn Root Worm)
Maize sprouts placed onto an agar layer in 24-well microtiter plates were treated with aqueous test solutions prepared from 10′000 ppm DMSO stock solutions by spraying. After drying, the plates were infested with L2 larvae (6 to 10 per well). The samples were assessed for mortality and growth inhibition in comparison to untreated samples 4 days after infestation.

[3] = system: Plutella xylostella; assay: Example B12: Plutella xylostella (Diamondback Moth), 96-well artificial diet; conditions: 216 h, application rate of 500 ppm, eggs, 9 days after infestation
Description: Example B12: Plutella xylostella (Diamondback Moth)
96-well microtiter plates containing artificial diet were treated with aqueous test solutions, prepared from 10′000 ppm DMSO stock solutions, by a liquid handling robot. After drying, eggs (˜30 per well) were infested onto a netted lid which was suspended above the diet. The eggs hatch and L1 larvae move down to the diet. The samples were assessed for mortality 9 days after infestation.

[4] = system: Spodoptera littoralis; assay: Example B10: Spodoptera littoralis (Egyptian Cotton Leaf Worm), uptake by lettuce roots from agar; conditions: 144 h, test rate of 12.5 ppm, compound in agar absorbed by lettuce roots, eggs, 6 days after infestation, read-out: control in at least one of the three categories (mortality, anti-feedant, or growth inhibition)
Excerpt: Example B10: Spodoptera littoralis (Egyptian Cotton Leaf Worm)
Test compounds were applied by pipette from 10′000 ppm DMSO stock solutions into 24-well plates and mixed with agar. Lettuce seeds were placed onto the agar and the multi well plate was closed by another plate which contained also agar. After 7 days the compound was absorbed by the roots and the lettuce grew into the lid plate. The lettuce leaves were then cut off into the lid plate. Spodoptera eggs were pipetted through a plastic stencil onto a humid gel blotting paper and the lid plate was closed with it. The samples were assessed for mortality, anti-feedant effect and growth inhibition in comparison to untreated samples 6 days after infestation.

[5] = system: Spodoptera littoralis; assay: Example B9: Spodoptera littoralis (Egyptian Cotton Leaf Worm), cotton leaf disc spray; conditions: foliar, 72 h, application rate of 200 ppm, sprayed cotton leaf discs, L1 larvae, 3 days after infestation, read-out: control in at least one of the three categories (mortality, anti-feedant or growth inhibition)
[6] = system: Chilo suppressalis; assay: Example B4: Chilo suppressalis (Striped Rice Stemborer); conditions: 144 h, application rate of 200 ppm, artificial diet, L2 larvae, 6 days after infestation, read-out: control in at least one of the three categories (mortality, anti-feedant or growth inhibition)
Method in brief: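 Artificial diet was treated with aqueous dilutions made from 10'000 ppm DMSO stocks, dried, then infested with L2 larvae at 6–8 per well. Mortality, antifeedant effect and growth inhibition were assessed against untreated samples 6 days after infestation.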

CC(NC(=O)c1cc(C(F)(F)F)cc(C(F)(F)C2CC2)c1)c1nccnc1-c1ncc(C2CC2)cn1 (stereo not drawn) [P39, 3-[cyclopropyl(difluoro)methyl]-N-[1-[3-(5-cyclopropylpyrimidin-2-yl)pyrazin-2-yl]ethyl]-5-(trifluoromethyl)benzamide]
≥ 80%: percent control (mortality or growth inhibition) at 200 ppm [1] | percent control (mortality or growth inhibition) at 200 ppm [2] | mortality at 500 ppm [3] | percent control (mortality, anti-feedant effect or growth inhibition) at 12.5 ppm [4] | percent control (mortality, anti-feedant effect or growth inhibition) at 200 ppm [5] | percent control (mortality, anti-feedant effect or growth inhibition) at 200 ppm [6]
